From PubChem BioAssay (NCI)
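How tested: cells in 96-well plates exposed to compound for 48 hours at five concentrations. At the GI50, growth is halved. TGI: total growth inhibition.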

Tests used:
Assay in all cases: DTP human tumour cell line panel, 48 h
[1] = test system: PC-3 prostate
[2] = test system: SF-295 CNS
[3] = test system: HCT-15 colon
[4] = test system: SR leukemia
[5] = test system: CAKI-1 renal
[6] = test system: OVCAR-8 ovarian
[7] = test system: M14 melanoma
[8] = test system: CCRF-CEM leukemia
[9] = test system: HT29 colon
[10] = test system: NCI-H460 lung
[11] = test system: IGROV1 ovarian
[12] = test system: HOP-62 NSCLC
[13] = test system: NCI-H226 lung
[14] = test system: A549 NSCLC
[15] = test system: SF-268 CNS
[16] = test system: SNB-19 CNS
[17] = test system: ACHN renal
[18] = test system: 786-0 renal
[19] = test system: K-562 leukemia
[20] = test system: OVCAR-4 ovarian
[21] = test system: RXF 393 renal
[22] = test system: MALME-3M melanoma
[23] = test system: OVCAR-3 ovarian
[24] = test system: HS 578T breast
[25] = test system: HCT-116 colon
[26] = test system: UACC-62 melanoma
[27] = test system: MDA-MB-231 breast
[28] = test system: UO-31 renal
[29] = test system: MOLT-4 leukemia
[30] = test system: NCI-H23 lung
[31] = test system: U251 CNS
[32] = test system: SNB-75 CNS
[33] = test system: MDA-MB-435
[34] = test system: SK-OV-3 ovarian
[35] = test system: RPMI-8226 leukemia
[36] = test system: DU-145 prostate
[37] = test system: T-47D breast
[38] = test system: MCF7 breast
[39] = test system: HCC-2998 colon
[40] = test system: SK-MEL-28 melanoma
[41] = test system: SF-539 CNS
[42] = test system: NCI/ADR-RES ovarian
[43] = test system: HL-60(TB) leukemia
[44] = test system: SK-MEL-2 melanoma
[45] = test system: COLO 205 colon
[46] = test system: TK-10 renal
[47] = test system: UACC-257 melanoma
[48] = test system: SN12C renal
[49] = test system: NCI-H522 lung
[50] = test system: OVCAR-5 ovarian
[51] = test system: SW-620 colon
[52] = test system: BT-549 breast
[53] = test system: EKVX NSCLC
[54] = test system: LOX IMVI melanoma
[55] = test system: KM12 colon
[56] = test system: A498 renal
[57] = test system: SK-MEL-5 melanoma

## O=C(CNC(=O)c1ccccc1)Oc1c(Cl)c(Cl)c(Cl)c(Cl)c1Cl
[1]
  TGI: 61.4 µM
[2]
  TGI: 79.9 µM
[3]
  TGI: > 100 µM
[4]
  TGI: > 100 µM
[5]
  TGI: 54.9 µM
[6]
  TGI: 64 µM
[7]
  TGI: > 100 µM
[8]
  TGI: > 100 µM
[9]
  TGI: > 100 µM
[10]
  TGI: > 100 µM
[11]
  TGI: 63.5 µM
[12]
  TGI: > 100 µM
[13]
  TGI: 88.6 µM
[14]
  TGI: > 100 µM
[15]
  TGI: > 100 µM
[16]
  TGI: > 100 µM
[17]
  TGI: 65.1 µM
[18]
  TGI: > 100 µM
[19]
  TGI: > 100 µM
[20]
  TGI: > 100 µM
[21]
  TGI: > 100 µM
[22]
  TGI: 57.1 µM
[23]
  TGI: 53.3 µM
[24]
  TGI: 67.6 µM
[25]
  TGI: > 100 µM
[26]
  TGI: 53.8 µM
[27]
  TGI: 66.1 µM
[28]
  TGI: 45.2 µM
[29]
  TGI: > 100 µM
[30]
  TGI: > 100 µM
[31]
  TGI: > 100 µM
[32]
  TGI: > 100 µM
[33]
  TGI: 94.1 µM
[34]
  TGI: > 100 µM
[35]
  TGI: 78.3 µM
[36]
  TGI: 49.9 µM
[37]
  TGI: > 100 µM
[38]
  TGI: > 100 µM
[39]
  TGI: 60.6 µM
[40]
  TGI: > 100 µM
[41]
  TGI: 95.1 µM
[42]
  TGI: 82.5 µM
[43]
  TGI: 77.5 µM
[44]
  TGI: 94.1 µM
[45]
  TGI: > 100 µM
[46]
  TGI: 94.1 µM
[47]
  TGI: 54.9 µM
[48]
  TGI: > 100 µM
[49]
  TGI: 83.8 µM
[50]
  TGI: > 100 µM
[51]
  TGI: 67.1 µM
[52]
  TGI: 58.1 µM
[53]
  TGI: 48 µM
[54]
  TGI: > 100 µM
[55]
  TGI: 45.6 µM

## Cc1cc2c(cc1C)[n+](=O)c(C(=O)C(C)(C)C)c(C(F)(F)F)n2[O-]
[56]
  GI50: 18.1 µM
  TGI: 44.1 µM
[57]
  GI50: 12.5 µM
  TGI: 26.9 µM
[1]
  GI50: 6.24 µM
  TGI: 39.2 µM
[2]
  GI50: 28.8 µM
  TGI: 85.4 µM
[3]
  GI50: 13.7 µM
  TGI: 55.6 µM
[4]
  GI50: 11.5 µM
  TGI: 33.2 µM
[5]
  GI50: 21.3 µM
  TGI: 55 µM
[6]
  GI50: 3.62 µM
  TGI: 15.5 µM
[7]
  GI50: 27.5 µM
  TGI: 80.8 µM
[8]
  GI50: 12.3 µM
  TGI: 49.3 µM
[9]
  GI50: 31.7 µM
  TGI: > 100 µM
[10]
  GI50: 13.7 µM
  TGI: 34 µM
[11]
  GI50: 5.17 µM
  TGI: 20.3 µM
[12]
  GI50: 17 µM
  TGI: 59.1 µM
[13]
  GI50: 16.2 µM
  TGI: 70.6 µM
[14]
  GI50: 8.61 µM
  TGI: 26.2 µM
[15]
  GI50: 16.6 µM
  TGI: 82.5 µM
[16]
  GI50: 56.2 µM
  TGI: > 100 µM
[17]
  GI50: 16.1 µM
  TGI: 34.5 µM
[18]
  GI50: 29.4 µM
  TGI: > 100 µM
[19]
  GI50: 4.3 µM
  TGI: 19.9 µM
[20]
  GI50: 26.7 µM
  TGI: > 100 µM
[22]
  GI50: 24.2 µM
  TGI: 68.1 µM
[23]
  GI50: 21.2 µM
  TGI: 50.1 µM
[24]
  GI50: 14.4 µM
  TGI: 58.6 µM
[25]
  GI50: 10.6 µM
  TGI: > 100 µM
[26]
  GI50: 17 µM
  TGI: 71.5 µM
[27]
  GI50: 13.6 µM
  TGI: 37.5 µM
[28]
  GI50: 17.4 µM
  TGI: 33.2 µM
[29]
  GI50: 8.2 µM
  TGI: 29.3 µM
[30]
  GI50: 16.1 µM
  TGI: 47.6 µM
[31]
  GI50: 20.8 µM
  TGI: > 100 µM
[32]
  GI50: 45.9 µM
  TGI: > 100 µM
[33]
  GI50: 28.2 µM
  TGI: 78.9 µM
[34]
  GI50: 50 µM
  TGI: > 100 µM
[35]
  GI50: 3.57 µM
  TGI: 15.4 µM
[36]
  GI50: 5.45 µM
  TGI: 19.5 µM
[37]
  GI50: 32.3 µM
  TGI: > 100 µM
[38]
  GI50: 20.8 µM
  TGI: 77.7 µM
[40]
  GI50: > 100 µM
  TGI: > 100 µM
[41]
  GI50: 16.6 µM
  TGI: 41.9 µM
[42]
  GI50: 9.08 µM
  TGI: 27.5 µM
[43]
  GI50: 5.9 µM
  TGI: 24.5 µM
[44]
  GI50: 25.6 µM
  TGI: 58.7 µM
[45]
  GI50: 54.4 µM
  TGI: > 100 µM
[46]
  GI50: 75.4 µM
  TGI: > 100 µM
[47]
  GI50: 7.71 µM
  TGI: 41.2 µM
[48]
  GI50: 14.1 µM
  TGI: 62.7 µM
[49]
  GI50: 18.9 µM
  TGI: 49.6 µM
[50]
  GI50: 8.51 µM
  TGI: 54.2 µM
[51]
  GI50: 28.4 µM
  TGI: > 100 µM
[52]
  GI50: 12 µM
  TGI: 50.5 µM
[53]
  GI50: 2.91 µM
  TGI: 9.95 µM
[54]
  GI50: 9.53 µM
  TGI: 25.7 µM
[55]
  GI50: 25 µM
  TGI: 62.1 µM
